According to article PMC12167809 (The Journal of Biological Chemistry, 2025):

System: β-TrCP1:β-catenin interaction
Assay type: binding, human
Conditions: saturating concentrations of glue, TR-FRET

## COc1cc2c(cc1OC)CN(C(=O)c1c(Sc3c(Cl)cccc3Cl)cc(C(F)(F)F)[nH]c1=O)C2 [NRX-252262, 4-((2,6-dichlorophenyl)thio)-3-(5,6-dimethoxyisoindoline-2-carbonyl)-6-(trifluoromethyl)pyridin-2(1H)-one]
  Effect on the β-TrCP1:β-catenin interaction: dramatically enhances the interaction between β-TrCP1 and β-catenin
